Test results published in patent US10160747B2, “Compounds and methods for kinase modulation, and indications therefor” (Plexxikon Inc., priority 2016, dated 2018).

Legend:
[1] = test system: MOLM-14 F691L (endogenous FLT3 ITD and transfected FLT3 F691L); assay: MOLM-14 F691L cell proliferation assay (CellTiter-Glo); type: cell-based; conditions: Homo sapiens, MOLM-14, 72 h; 3 d growth, GMean
In short: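 MOLM-14 derivatives carrying D835Y or F691L, selected under escalating AC220, were seeded at 1×10^4 cells/well and exposed to an 8-point 1:3 compound series (1 to 0.00046 μM, 0.2% DMSO final) for three days at 37° C., 5% CO2. CellTiter-Glo luminescence (ATP content) versus concentration gave IC50.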

[2] = target: T1, BA/F3-FLT3-ITD + D835Y (Homo sapiens, UniProt P36888, D835Y, cells depend on it, form not given); assay: Engineered BA/F3 cell growth assay, FLT3 ITD/D835Y; type: cell-based, murine; conditions: 3 d growth
T1 sequence (P36888 with tags, fused parts or gaps INS600HVDFREYEYD/D835Y): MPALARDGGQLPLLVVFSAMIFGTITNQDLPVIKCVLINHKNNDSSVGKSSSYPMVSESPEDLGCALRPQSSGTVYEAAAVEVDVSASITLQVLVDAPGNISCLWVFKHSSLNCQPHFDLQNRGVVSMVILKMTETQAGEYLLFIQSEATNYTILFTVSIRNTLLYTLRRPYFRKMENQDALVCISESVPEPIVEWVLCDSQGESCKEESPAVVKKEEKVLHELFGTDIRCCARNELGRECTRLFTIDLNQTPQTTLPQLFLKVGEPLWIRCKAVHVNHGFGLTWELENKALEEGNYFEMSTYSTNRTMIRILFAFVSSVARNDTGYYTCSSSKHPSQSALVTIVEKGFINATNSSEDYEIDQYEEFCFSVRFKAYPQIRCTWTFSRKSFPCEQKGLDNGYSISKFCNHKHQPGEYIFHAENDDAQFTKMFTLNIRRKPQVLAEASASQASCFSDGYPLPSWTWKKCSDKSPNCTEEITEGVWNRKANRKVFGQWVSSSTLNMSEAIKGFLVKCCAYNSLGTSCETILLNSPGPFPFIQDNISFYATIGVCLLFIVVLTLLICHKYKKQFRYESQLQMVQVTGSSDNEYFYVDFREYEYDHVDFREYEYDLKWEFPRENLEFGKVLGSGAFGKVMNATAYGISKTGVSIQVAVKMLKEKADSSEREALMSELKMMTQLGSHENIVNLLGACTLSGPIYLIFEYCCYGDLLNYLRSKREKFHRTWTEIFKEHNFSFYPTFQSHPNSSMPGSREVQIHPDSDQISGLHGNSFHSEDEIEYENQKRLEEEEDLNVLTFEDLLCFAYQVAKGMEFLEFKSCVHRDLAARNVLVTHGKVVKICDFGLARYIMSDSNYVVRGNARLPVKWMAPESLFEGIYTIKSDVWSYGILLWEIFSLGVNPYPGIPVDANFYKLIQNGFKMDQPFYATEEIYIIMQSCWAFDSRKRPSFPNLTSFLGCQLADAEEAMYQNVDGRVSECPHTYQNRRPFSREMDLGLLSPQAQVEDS
In short: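 Murine Ba/F3 cells transfected with full-length FLT3 ITD/D835Y, grown without IL-3 so growth depends on FLT3. Seeded at 1×10^4 cells/well, 8-point 1:3 series to 1 μM top (0.2% DMSO), 3 days at 37 °C. CellTiter-Glo luminescence (ATP) versus concentration gave IC50.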

| IC50 [1] | GI50 [2] | SMILES |
| --- | --- | --- |
| 0.0001 to 10 µM | 0.0001 to 10 µM | O=C(Cc1ccc(-c2cnc3[nH]c(-c4ccc(N5CCOCC5)nc4)cc3c2)c(F)c1)Nc1cncc(C(F)(F)F)c1 [Compound P-0198, 2-[3-fluoro-4-[2-(6-morpholino-3-pyridyl)-1H-pyrrolo[2,3-b]pyridin-5-yl]phenyl]-N-[5-(trifluoromethyl)-3-pyridyl]acetamide] |
| 0.0001 to 10 µM | 0.0001 to 10 µM | N#Cc1cc(-c2cc3cc(-c4ccc(CC(=O)Nc5cncc(C(F)(F)F)c5)cc4F)cnc3[nH]2)ccn1 [Compound P-0199, 2-[4-[2-(2-cyano-4-pyridyl)-1H-pyrrolo[2,3-b]pyridin-5-yl]-3-fluoro-phenyl]-N-[5-(trifluoromethyl)-3-pyridyl]acetamide] |

More lines, now with the values behind:

| SMILES | IC50 [1] | GI50 [2] |
| --- | --- | --- |
| O=C(Cc1ccc(-c2cnc3[nH]c(-c4ccc(N5CCOCC5)nc4)cc3c2)cn1)Nc1ccnc(C(F)(F)F)c1 [Compound P-0183, 2-[5-[2-(6-morpholino-3-pyridyl)-1H-pyrrolo[2,3-b]pyridin-5-yl]-2-pyridyl]-N-[2-(trifluoromethyl)-4-pyridyl]acetamide] | 0.0001 to 10 µM | 0.0001 to 10 µM |
| O=C(Cc1ccc(-c2cnc3[nH]c(-c4ccc(N5CCOCC5)nc4)cc3c2)c(F)c1)Nc1cc(C(F)(F)F)ccn1 [Compound P-0192, 2-[3-fluoro-4-[2-(6-morpholino-3-pyridyl)-1H-pyrrolo[2,3-b]pyridin-5-yl]phenyl]-N-[4-(trifluoromethyl)-2-pyridyl]acetamide] | 0.0001 to 10 µM | 0.0001 to 10 µM |
| COc1ccc(-c2cc3cc(-c4ccc(CC(=O)Nc5cncc(C(F)(F)F)c5)cc4F)cnc3[nH]2)cn1 [Compound P-0196, 2-[3-fluoro-4-[2-(6-methoxy-3-pyridyl)-1H-pyrrolo[2,3-b]pyridin-5-yl]phenyl]-N-[5-(trifluoromethyl)-3-pyridyl]acetamide] | 0.0001 to 10 µM | 0.0001 to 10 µM |
| O=C(Cc1ccc(-c2cnc3[nH]c(-c4cnn(C(F)F)c4)cc3c2)c(F)c1)Nc1cncc(C(F)(F)F)c1 [Compound P-0197, 2-[4-[2-[1-(difluoromethyl)pyrazol-4-yl]-1H-pyrrolo[2,3-b]pyridin-5-yl]-3-fluoro-phenyl]-N-[5-(trifluoromethyl)-3-pyridyl]acetamide] | 0.0001 to 10 µM | 0.0001 to 10 µM |
